Patent US9315483B2, “Synthesis of deuterated catechols and benzo[D][1,3]dioxoles and derivatives thereof” (Concert Pharmaceuticals, Inc., priority 2007, dated 2016)

What was measured:
CYP2D6 = CYP2D6 (Homo sapiens, UniProt P10635); experiment: Inactivation of CYP2D6 in human liver microsomes (dextrorphan formation from dextromethorphan)
Procedure: Method: This study was conducted according to the procedure established by Bertelsen et al for paroxetine. See Bertelsen K M, Venkatakrishnan K, von Moltke L L, Obach S, Greenblatt, D J. Apparent mechanism-based inhibition of human CYP2D6 in vitro by paroxetine: comparison with fluoxetine and quinidine. Drug Met Disp 2003; 31:289-293. Briefly, the test articles were pre-incubated with human liver microsomes for various times followed by the addition of dextromethorphan, a CYP2D6 substrate. The formation of dextrorphan, a CYP2D6-specific metabolite of dextromethorphan, was monitored as a measure of CYP2D6 activity.

[1] = Metabolic stability in rat liver microsomes (in vitro t1/2 method)
Procedure: (§1) Method: Test Compound A was evaluated at a concentration of 1 μM for apparent metabolic stability by the in vitro t1/2 method described by Obach et al. See Obach R S, Baxter J G, Liston T E, Silber B M, Jones B C, MacIntyre F, et al. The prediction of human pharmacokinetic parameters from preclinical and in vitro metabolism data. JPET 1997; 283:46-58.

[2] = target: human cDNA-expressed CYP2D6 (Homo sapiens, UniProt P10635); experiment: Drug-drug interaction potential with tamoxifen: formation of endoxifen from N-desmethyl TAM after pre-incubation with CYP2D6
human cDNA-expressed CYP2D6, sequence (P10635 whole entry): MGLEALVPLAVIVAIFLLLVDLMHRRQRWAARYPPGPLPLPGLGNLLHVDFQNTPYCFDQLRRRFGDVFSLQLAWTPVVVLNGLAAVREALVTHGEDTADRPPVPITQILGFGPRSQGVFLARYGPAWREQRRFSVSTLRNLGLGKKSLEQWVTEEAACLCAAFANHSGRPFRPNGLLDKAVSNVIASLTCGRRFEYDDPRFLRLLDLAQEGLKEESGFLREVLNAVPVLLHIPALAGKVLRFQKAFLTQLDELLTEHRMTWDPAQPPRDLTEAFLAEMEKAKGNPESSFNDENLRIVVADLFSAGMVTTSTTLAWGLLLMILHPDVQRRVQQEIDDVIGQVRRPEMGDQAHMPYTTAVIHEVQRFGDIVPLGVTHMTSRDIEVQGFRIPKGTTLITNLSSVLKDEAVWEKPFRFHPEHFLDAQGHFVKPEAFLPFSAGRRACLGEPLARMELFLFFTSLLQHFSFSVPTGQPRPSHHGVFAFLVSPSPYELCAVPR
Source text: Objective: The objective of this study was to determine the potential for the deuterated paroxetine, (3S,4R)-3-((2,2-d2-benzo[d][1,3]dioxol-5-yloxy)methyl)-4-(4-fluorophenyl)piperidine, HCl salt-hemihydrate, to inhibit the formation of endoxifen using human cDNA-expressed CYP2D6 as compared with paroxetine. The deuterated paroxetine, (3S,4R)-3-((2,2-d2-benzo[d][1,3]dioxol-5-yloxy)methyl)-4-(4-fluorophenyl)piperidine, HCl salt-hemihydrate, will be referred to as “Test Compound A” in the following examples and the figures.
Method: Test Compound A was pre-incubated for 20 min at various concentrations with human cDNA-expressed CYP2D6 (500 pmol/mL) in the presence of NADPH, after which aliquots of the reaction mixture were diluted 1:10 in buffer containing NADPH. N-desmethyl TAM (50 μM) was then added to the diluted pre-incubation mixtures. After 45 min of incubation, endoxifen concentrations were determined by LC-MS/MS.

[3] = for vasomotor symptoms (VMS); expected
[4] = Metabolic stability in human liver microsomes (in vitro t1/2 method)
Procedure: as §1

CYP2D6, sequence (P10635 whole entry): as above

Cl.Cl.O.[2H]C1([2H])Oc2ccc(OC[C@@H]3CNCC[C@H]3c3ccc(F)cc3)cc2O1.[2H]C1([2H])Oc2ccc(OC[C@@H]3CNCC[C@H]3c3ccc(F)cc3)cc2O1 [Test Compound A, (3S,4R)-3-((2,2-d2-benzo[d][1,3]dioxol-5-yloxy)methyl)-4-(4-fluorophenyl)piperidine, HCl salt-hemihydrate]
CYP2D6 activity (percentage of dextrorphan formation relative to control) (CYP2D6; 0-10 μM concentration range): remained similar to that of control
inhibition of CYP2D6 (CYP2D6; as the concentration approached 25 μM): Some inhibition
mechanism-based inactivation of CYP2D6 (CYP2D6; at concentrations up to 10 μM): does not exhibit mechanism-based inactivation
kINACT for CYP2D6 inactivation (CYP2D6; human liver microsomes): could not be calculated
t1/2 ([1]; Rat liver microsomes 0.5 mg/mL, 1 μM): 15.5 ± 1.6 min
mean relative amount remaining at the end of 30 minutes incubation ([1]; rat hepatic microsomes 0.5 mg/mL, 1 μM, n=4): 25.5±4.3%
t1/2 less than the corresponding value for paroxetine ([1]; rat liver microsomes): approximately 24%
endoxifen produced in the presence of Test Compound A relative to in the presence of paroxetine ([2]; highest concentration (25 μM)): 12 fold
change in the formation of endoxifen from N-desmethyl tamoxifen ([2]; over the range of concentrations tested (0-25 μM), 20 min pre-incubation with NADPH, N-desmethyl TAM 50 μM, 45 min): little to no change
maximum plasma concentration in humans [3]: ≤ 30 nM
t1/2 ([4]; Human liver microsomes 0.5 mg/mL, 1 μM): 20.9 ± 2.0 min
mean relative amount remaining at the end of 30 minutes incubation ([4]; human hepatic microsomes 0.5 mg/mL, 1 μM, n=4): 37.2±3.9%
t1/2 less than the corresponding value for paroxetine ([4]; human liver microsomes): ~57%

Fc1ccc([C@@H]2CCNC[C@H]2COc2ccc3c(c2)OCO3)cc1 [Paroxetine, paroxetine, reference compound]
KI (inactivation) (CYP2D6; human, microsomes): 1960 nM
kinact (CYP2D6; human, microsomes): 0.00133 s⁻¹
inhibition of CYP2D6, expressed as the percentage of dextrorphan formation relative to control (CYP2D6; microsomes): concentration- and time-dependent inhibition
half-life at 1 μM ([1]; rat, microsomes): 20.4 ± 2.1 min
half-life at 1 μM ([4]; human, microsomes): 49 ± 7.8 min
